Results published in the NIST ThermoML archive (doi:10.1016/j.jct.2009.01.010).
Numbers after ± are expanded uncertainties.

Columns and labels:
[1] = 298.15 K, 101 kPa, Liquid; for speed of sound: Linear variable-path acoustic interferometer; for mass density: Pycnometric method
[2] = refractive index (Na D-line) (dimensionless); settings: 298.15 K; 101.33 kPa; Liquid; Abbe refractometer
[3] = xn = mol fraction of the nth substance listed; settings: 298.15 K, 101 kPa, Liquid; for speed of sound: Linear variable-path acoustic interferometer; for mass density: Pycnometric method
[4] = refractive index (Na D-line) (dimensionless); xn = mol fraction of the nth substance listed; settings: 298.15 K, 101 kPa, Liquid, Abbe refractometer

COCCOCCO [2-(2-methoxyethoxy)ethanol]
Settings	mass density [kg/m3]	refractive index	speed of sound [m/s]
[1]	1016.95 ± 7.5	–	1422.6 ± 5.4
[2]	–	1.425 ± 0.001	–

COCCOCCO [2-(2-methoxyethoxy)ethanol] + O
Settings	mass density, [3] [kg/m3]	refractive index, [4]	speed of sound, [3] [m/s]
x1 = 0.013	1002.42 ± 0.91	1.341 ± 0.001	1546 ± 2
x1 = 0.026	1008.21 ± 0.91	1.349 ± 0.001	1582 ± 2
x1 = 0.051	1017.19 ± 0.93	1.36 ± 0.001	1640 ± 2.1
x1 = 0.064	1021.22 ± 0.94	1.366 ± 0.001	1646.7 ± 2.1
x1 = 0.074	1023.92 ± 0.94	1.37 ± 0.001	1662 ± 2.1
x1 = 0.101	1029.24 ± 0.96	1.378 ± 0.001	1674 ± 2.2
x1 = 0.15	1034.64 ± 1	1.39 ± 0.001	1674 ± 2.2
x1 = 0.187	1035.66 ± 1.1	1.396 ± 0.001	1660 ± 2.3
x1 = 0.305	1034.8 ± 1.3	1.408 ± 0.001	1606 ± 2.6
x1 = 0.401	1031.91 ± 1.7	1.412 ± 0.001	1562 ± 2.9
x1 = 0.506	1028.25 ± 2.3	1.415 ± 0.001	1514 ± 3.2
x1 = 0.646	1024.01 ± 3.4	1.418 ± 0.001	1474 ± 3.8
x1 = 0.766	1021.27 ± 4.5	1.419 ± 0.001	1454 ± 4.3
x1 = 0.895	1018.65 ± 6.1	1.422 ± 0.001	1442 ± 4.9
x1 = 1	1016.95 ± 7.5	1.425 ± 0.001	1422.6 ± 5.4

CCOCCO [2-ethoxyethan-1-ol]
Settings	mass density [kg/m3]	refractive index	speed of sound [m/s]
[1]	925.39 ± 6.3	–	1302.5 ± 5.4
[2]	–	1.4058 ± 0.001	–

CCOCCO [2-ethoxyethan-1-ol] + O
Settings	mass density, [3] [kg/m3]	refractive index, [4]	speed of sound, [3] [m/s]
x1 = 0.0092	996.93 ± 0.9	1.3389 ± 0.0003	1541.3 ± 2
x1 = 0.0177	997.02 ± 0.9	1.3415 ± 0.0003	1553.1 ± 2
x1 = 0.025	997.2 ± 0.9	1.3442 ± 0.0003	1575.6 ± 2
x1 = 0.0502	998.06 ± 0.91	1.3542 ± 0.0003	1626.9 ± 2.1
x1 = 0.0767	998.24 ± 0.92	1.3628 ± 0.0003	1649.6 ± 2.1
x1 = 0.1024	996.67 ± 0.93	1.3709 ± 0.0003	1646.5 ± 2.1
x1 = 0.183	988.37 ± 0.99	1.3854 ± 0.0004	1567.6 ± 2.2
x1 = 0.299	974.41 ± 1.2	1.394 ± 0.0004	1517.4 ± 2.5
x1 = 0.4058	963.11 ± 1.5	1.3979 ± 0.0005	1458.1 ± 2.8
x1 = 0.5059	954.22 ± 2	1.4012 ± 0.0006	1415.2 ± 3.2
x1 = 0.5996	947.01 ± 2.6	1.4025 ± 0.0007	1385.7 ± 3.6
x1 = 0.706	940.07 ± 3.4	1.4039 ± 0.0008	1359.6 ± 4
x1 = 0.8431	933.47 ± 4.6	1.4046 ± 0.0009	1330.4 ± 4.6
x1 = 0.8716	932.35 ± 4.9	1.4049 ± 0.0009	1325.6 ± 4.8
x1 = 1	925.39 ± 6.3	1.4058 ± 0.001	1302.5 ± 5.4

COCCO [2-methoxyethan-1-ol]
Settings	mass density [kg/m3]	refractive index	speed of sound [m/s]
[1]	960.23 ± 6.7	–	1341.7 ± 5.4
[2]	–	1.4002 ± 0.001	–
